Laboratory results taken from patent US8207212B2, “Methods and devices for epithelial protection during photodynamic therapy” (The General Hospital Corporation, priority 2003, dated 2012).

Tests used:
[1] = tested on: rat epidermal keratinocyte (REK) cells; assay: Effect of DOHA pre-incubation on ALA-induced PpIX formation in REK cells; format: cell-based; conditions: washed, then 0.25 mM ALA for 3 hours (FIG. 4)
Procedure: Several trials of rat epidermal keratinocyte (REK) cells were pre-incubated with various amounts of 4-dioxoheptanoic acid (DOHA) ranging from 1^−8 M to 1^−4 M. The cells were then washed, and incubated with 0.25 mM ALA for 3 hours.

human skin = assay: PpIX fluorescence imaging in human skin after topical DOHA followed by topical ALA; conditions: human skin in vivo, DOHA topical 0.1%, 0.3%, 1% for 1 hour, followed by topical 5% ALA (FIG. 6)
Procedure: DOHA was topically applied to human skin in concentrations of (a) 0.1%, (b) 0.3%, and (c) 1% for 1 hour, followed by topical application of 5% ALA. PpIX fluorescence was then imaged.

[2] = tested on: rat epidermal keratinocyte (REK) cells; assay: PpIX formation in rat epidermal keratinocyte cells incubated with ALA at different temperatures; format: cell-based; conditions: 0.5 mM ALA, after three hours (FIG. 2)
Procedure: Two trials of rat epidermal keratinocyte (REK) cells were incubated with 0.5 mM ALA at temperatures of 21° C. and 37° C., respectively, for varying times. […] Accordingly, a temperature gradient of about 16° C. is more than sufficient to inhibit metabolism of a photosensitizing agent in epidermal tissue surrounding a targeted treatment site.
Several trials of rat epidermal keratinocyte (REK) cells were incubated with various amounts of ALA ranging from 0.1 mM to 0.5 mM, at various temperatures ranging from 15° C. to 40° C.

Row | Compound | PpIX formation ([1]; REK cells pre-incubated with DOHA at concentrations greater than 10^−5 M) | PpIX formation ([1]; REK cells pre-incubated with DOHA at concentrations greater than 10^−7 M) | PpIX formation (fluorescence) (human skin) | PpIX concentration ([2]; 21° C.) | PpIX concentration ([2]; 37° C.)
1 | CC(=O)CC(=O)CCC(=O)O [DOHA, 4-dioxoheptanoic acid] | even further chemical inhibition | significantly inhibited | effective to chemically inhibit PpIX formation |  | 
2 | NCC(=O)CCC(=O)O [ALA, aminolevulinic acid] |  |  |  | less than 50 pmol/10^6 | greater than 400 pmol/10^6
